Values quoted from earlier work as cited in paper PMC9516532, “A genetically encoded BRET-based SARS-CoV-2 M^pro protease activity sensor” (Communications Chemistry, 2022).

Test system: P-gp
Conditions: reviewer's comment; ref ACS Infect. Dis. 2021, 7, 3, 586–597

CC(C)C[C@H](NC(=O)OCc1ccccc1)C(=O)N[C@@H](C[C@@H]1CCNC1=O)C(O)S(=O)(=O)[O-].[Na+] (stereo partly shown) [GC376]
P-gp substrate: known substrate of P-gp
